*1 amine or outer side, *2 acyl side, *3 side chain or, on linkers, in order; H or OH if unused. Where a SMILES comes first, the peptide text is derived from it. Side-chain parts run from the residue outwards. [ ]: non-standard residue; d: D form. The star is where a group is joined. C20 diacid = O=C(O)CCCCCCCCCCCCCCCCCCC(=O)*; C18 diacid = O=C(O)CCCCCCCCCCCCCCCCC(=O)*; γGlu = O=C(O)[C@H](CCC(=O)[*:2])N[*:1]; AEEA = NCCOCCOCC(=O)O; Aib = CC(C)(N)C(=O)O
Tests used:
human GIP receptor = molecular target: T1, human GIP receptor (Homo sapiens, UniProt P48546); assay: cAMP HTRF assay in human adipocytes endogenously expressing the human GIP receptor; assay type: cell-based; conditions: for Emax: read-out: hGIPR Emax
T1 construct: human adipocytes endogenously expressing the human GIP receptor; host or cells: human preadipocytes (Lonza) differentiated to adipocytes
T1 sequence (P48546 22-466): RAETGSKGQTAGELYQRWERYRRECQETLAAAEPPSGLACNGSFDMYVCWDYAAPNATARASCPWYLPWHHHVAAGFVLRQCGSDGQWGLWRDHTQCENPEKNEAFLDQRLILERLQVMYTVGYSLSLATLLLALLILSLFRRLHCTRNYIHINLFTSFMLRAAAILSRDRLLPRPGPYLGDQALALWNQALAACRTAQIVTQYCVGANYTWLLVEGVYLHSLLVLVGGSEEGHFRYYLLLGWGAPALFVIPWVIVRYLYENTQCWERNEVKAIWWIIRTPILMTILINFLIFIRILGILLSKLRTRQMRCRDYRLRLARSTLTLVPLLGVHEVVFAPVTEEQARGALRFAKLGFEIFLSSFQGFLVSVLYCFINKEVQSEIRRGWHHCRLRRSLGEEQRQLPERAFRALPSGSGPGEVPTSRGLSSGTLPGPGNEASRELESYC
Description: For this, one vial of human preadipocytes (˜10^6 cells; Lonza) was thawed in a T-75 cell culture dish.
After 3 days, the cells were washed with PBS and 1.5 ml Trypsin, incubated for 4 min, then resuspended in medium, centrifugated for 10 min @ 300 rcf RT, resuspended again and distributed to four T-75 cell culture dishes.
After 5 days, the cells were washed with PBS and 1.5 ml Trypsin, incubated for 4 min, then resuspended in medium, centrifugated for 10 min @ 300 rcf RT, resuspended again and sawn in T-75 dishes (2.5×10^6 cells per dish) in 15 ml Differentiation medium each.
After 6 days of differentiation, 5000 cells per well were dispensed on a 96-well plate (#CLS3694 from Corning®, Sigma-Aldrich). For measurement of cAMP generation, 25 μL of test compound was added to each well of the 96-well plate, followed by incubation for 30 min at room temperature.
The cAMP generated following test compound stimulation was determined using a kit from Cisbio Corp. based on HTRF (Homogenous Time Resolved Fluorescence). The cAMP assay was performed according to manufacturer's instructions (Cisbio).
The cAMP content of cells was determined using a kit from Cisbio Corp. based on HTRF (Homogenous Time Resolved Fluorescence).

[1] = molecular target: human GLP-1 receptor (hGLP-1R) (Homo sapiens, UniProt P43220); assay: cAMP HTRF assay, HEK-293 cell line over-expressing human GLP-1 receptor; assay type: cell-based; conditions: HEK-293, cAMP, 0% HSA
Sequence of human GLP-1 receptor (hGLP-1R) (P43220 24-463): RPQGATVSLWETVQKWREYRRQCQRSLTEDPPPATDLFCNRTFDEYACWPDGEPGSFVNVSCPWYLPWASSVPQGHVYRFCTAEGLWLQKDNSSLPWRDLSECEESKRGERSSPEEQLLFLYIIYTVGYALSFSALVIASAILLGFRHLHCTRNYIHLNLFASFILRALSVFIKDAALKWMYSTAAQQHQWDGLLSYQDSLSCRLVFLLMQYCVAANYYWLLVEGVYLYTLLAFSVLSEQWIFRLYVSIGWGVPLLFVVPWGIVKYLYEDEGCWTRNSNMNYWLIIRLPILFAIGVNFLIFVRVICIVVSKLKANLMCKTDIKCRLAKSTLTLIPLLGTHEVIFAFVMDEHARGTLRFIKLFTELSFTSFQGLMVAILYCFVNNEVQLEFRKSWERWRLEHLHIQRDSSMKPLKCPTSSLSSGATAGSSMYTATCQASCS
Description: Each vial contained 1.8 ml cells. The vials were slowly frozen to −80° C. in isopropanol, and then transferred in liquid nitrogen for storage.
Prior to their use, frozen cells were thawed quickly at 37° C. and washed (5 min at 900 rpm) with 20 ml cell buffer (1× HBSS; 20 mM HEPES, plus 0.1% HSA if indicated in Example conditions).
For measurement of cAMP generation, 5 μl cells (final 5000 cells/well) and 5 μl of test compound were added to a 384-well plate, followed by incubation for 30 min at room temperature.
The cAMP generated was determined using a kit from Cisbio Corp. based on HTRF (Homogenous Time Resolved Fluorescence). The cAMP assay was performed according to manufacturer's instructions (Cisbio).

[2] = molecular target: T2, human GIP receptor (hGIPR) (Homo sapiens, UniProt P48546); assay: Binding assay, displacement of [125I]GIP from HEK-293 membranes expressing GIPR; conditions: [125I]GIP displacement
T2 sequence (P48546 22-466): T1 sequence (P48546 22-466)
Description: HEK-293 cells recombinantly over-expressing GIPR or GLP-1R were grown to 50% confluency, washed with warm 1×PBS (Gibco) and detached in HEPES/EDTA-buffer (100 mM HEPES pH 7.5, 5 mM EDTA). Cells were harvested by centrifugation at 4° C. and 3000×g and the pellets were stored at −80° C. until further processing.
After thawing on ice, pellets were resuspended in HEPES/EDTA-buffer and homogenized on ice for 1 min using Ultra-Turray T25. After subsequent sonification the cell debris was removed by centrifugation at 1000×g and 4° C. Supernatants were then ultra-centrifuged at 100000×g and 4° C. under vacuum for 30 min. Pellets were resuspended in HEPES/EDTA/NaCl-buffer (20 mM HEPES, 1 mM EDTA, 150 mM NaCl; add 1 Complete Mini Protease inhibitor cocktail to 10 ml buffer) and protein content was determined via BCA-Protein assay.

[3] = ThT assay for the assessment of physical stability; assay type: physicochemical; conditions: ThT buffer system A: 100 mM phosphate buffer pH 7.4; 3 mg/ml, 37° C.
Description: Low physical stability of a peptide solution may lead to amyloid fibril formation, which is observed as well-ordered, thread-like macromolecular structures in the sample, which eventually may lead to gel formation. Thioflavin T (ThT) is widely used to visualize and quantify the presence of misfolded protein aggregates [Biancalana et al., Biochim. Biophys. Acta 2010, 1804(7), 1405]. […] Enzymol. 1999, 309, 274]. The time course for fibril formation often follows the characteristic shape of a sigmoidal curve and can be separated into three regions: a lag phase, a fast growth phase, and a plateau phase.
The typical fibril formation process starts with the lag phase in which the amount of partially folded peptide turned into fibrils is not significant enough to be detected. The lag-time corresponds to the time the critical mass of the nucleus is built. Afterwards, a drastic elongation phase follows, and fibril concentration increases rapidly.
Investigations were carried out to determine fibrillation tendencies under stress conditions by shaking at 37° C. within Fluoroskan Ascent FL or Fluoroskan Ascent.
For the tests in Fluoroskan Ascent (FL), 200 μl sample were placed into a 96-well mictrotiter plate PS, flat bottom, Greiner Fluotrac No. 655076. Plates were sealed with Scotch Tape (Qiagen). Samples were stressed by continuous cycles of 10 sec shaking at 960 rpm and 50 sec rest period at 37° C. The kinetic was monitored by measuring fluorescence intensity every 20 min.
Peptides were diluted in a buffer system to a final concentration of 3 mg/ml. 20 μl of a 10.1 mM ThT solution in H2O were added to 2 ml of peptide solution to receive a final concentration of 100 μM ThT. For each sample eight replicates were tested.
ThT buffer system A) 100 mM phosphate buffer pH 7.4
ThT buffer system B) 100 mM phosphate buffer pH 7.4, 2.7 mg/ml m-cresol
Lag time in hours (h) in Thioflavin T (ThT) assay of peptide samples was determined in ThT buffer system A as described in Methods.

| SMILES | EC50 (human GIP receptor; read-out: hGIPR EC50) | Emax (human GIP receptor) | EC50 [1] | IC50 [2] | Increase in FI [3] | Lag time before increase [3] |
| --- | --- | --- | --- | --- | --- | --- |
| CC[C@H](C)[C@H](NC(=O)[C@H](CCCNC(=N)N)NC(=O)[C@H](CC(=O)O)NC(=O)[C@H](CCCCNC(=O)COCCOCCNC(=O)COCCOCCNC(=O)CC[C@H](NC(=O)CCCCCCCCCCCCCCCCCCC(=O)O)C(=O)O)NC(=O)C(C)(C)NC(=O)[C@@H](NC(=O)[C@H](CO)NC(=O)[C@H](CC(C)C)NC(=O)[C@H](CC(=O)O)NC(=O)[C@H](CO)NC(=O)[C@@H](NC(=O)[C@H](Cc1ccccc1)NC(=O)[C@@H](NC(=O)CNC(=O)[C@H](CCC(=O)O)NC(=O)C(C)(C)NC(=O)[C@@H](N)Cc1ccc(O)cc1)[C@@H](C)O)[C@@H](C)CC)[C@@H](C)CC)C(=O)N[C@@H](Cc1c[nH]cn1)C(=O)N[C@@H](CCC(N)=O)C(=O)NC(C)(C)C(=O)N[C@@H](CCC(=O)O)C(=O)N[C@@H](Cc1ccccc1)C(=O)N[C@H](C(=O)N[C@@H](CCC(=O)O)C(=O)N[C@@H](Cc1c[nH]c2ccccc12)C(=O)N[C@@H](CC(C)C)C(=O)N[C@@H](CC(C)C)C(=O)N[C@@H](C)C(=O)N[C@@H](CCC(N)=O)C(=O)NCC(=O)N1CCC[C@H]1C(=O)N[C@@H](CO)C(=O)N[C@@H](CO)C(=O)NCC(=O)N[C@@H](C)C(=O)N1CCC[C@H]1C(=O)N1CCC[C@H]1C(=O)N1CCC[C@H]1C(=O)N[C@@H](CO)C(N)=O)[C@@H](C)CC [SEQ ID NO: 7, H2N-Y-Aib-E-G-T-F-I-S-D-I-S-I-Aib-K[{AEEA}2-gGlu-C20OH]-D-R-I-H-Q-Aib-E-F-I-E-W-I-L-A-Q-G-P-S-S-G-A-P-P-P-S-NH2] (H-Y[Aib]EGTFISDLSI[Aib]K([AEEA-AEEA-γGlu-C20 diacid])DRIHQ[Aib]EFIEWLLAQGPSSGAPPPS-NH2) | 0.3 nM | 121% | > 10 nM | 0.2 nM |  |  |
| CC[C@H](C)[C@H](NC(=O)[C@H](Cc1ccccc1)NC(=O)[C@H](CCC(=O)O)NC(=O)[C@H](CCC(=O)O)NC(=O)[C@H](CCC(N)=O)NC(=O)[C@H](Cc1c[nH]cn1)NC(=O)[C@@H](NC(=O)[C@H](CCCNC(=N)N)NC(=O)[C@H](CC(=O)O)NC(=O)[C@H](CCCCNC(=O)COCCOCCNC(=O)COCCOCCNC(=O)CC[C@H](NC(=O)CCCCCCCCCCCCCCCCC(=O)O)C(=O)O)NC(=O)C(C)(C)NC(=O)[C@@H](NC(=O)[C@H](CO)NC(=O)[C@H](CC(C)C)NC(=O)[C@H](CC(=O)O)NC(=O)[C@H](CO)NC(=O)[C@@H](NC(=O)[C@H](Cc1ccccc1)NC(=O)[C@@H](NC(=O)CNC(=O)[C@H](CCC(=O)O)NC(=O)C(C)(C)NC(=O)[C@@H](N)Cc1ccc(O)cc1)[C@@H](C)O)[C@@H](C)CC)[C@@H](C)CC)[C@@H](C)CC)C(=O)N[C@@H](CCC(=O)O)C(=O)N[C@@H](Cc1c[nH]c2ccccc12)C(=O)N[C@@H](CC(C)C)C(=O)N[C@@H](CC(C)C)C(=O)N[C@@H](C)C(=O)N[C@@H](CCC(N)=O)C(=O)NCC(=O)N1CCC[C@H]1C(=O)N[C@@H](CO)C(=O)N[C@@H](CO)C(=O)NCC(=O)N[C@@H](C)C(=O)N1CCC[C@H]1C(=O)N1CCC[C@H]1C(=O)N1CCC[C@H]1C(=O)N[C@@H](CO)C(N)=O [SEQ ID NO: 9, H2N-Y-Aib-E-G-T-F-I-S-D-I-S-I-Aib-K[{AEEA}2-gGlu-C18OH]-DRIHQEEFIEWILAQGPSSGAPPPS-NH2] (H-Y[Aib]EGTFISDLSI[Aib]K([AEEA-AEEA-γGlu-C18 diacid])DRIHQEEFIEWLLAQGPSSGAPPPS-NH2) |  | 125% | > 10 nM |  | no | >45 h |
| CC[C@H](C)[C@H](NC(=O)[C@H](Cc1ccccc1)NC(=O)[C@H](CCC(=O)O)NC(=O)[C@H](CCC(=O)O)NC(=O)[C@H](CCC(N)=O)NC(=O)[C@H](Cc1c[nH]cn1)NC(=O)[C@@H](NC(=O)[C@H](CCCNC(=N)N)NC(=O)[C@H](CC(=O)O)NC(=O)[C@H](CCCCNC(=O)COCCOCCNC(=O)COCCOCCNC(=O)CC[C@H](NC(=O)CCCCCCCCCCCCCCCCCCC(=O)O)C(=O)O)NC(=O)C(C)(C)NC(=O)[C@@H](NC(=O)[C@H](CO)NC(=O)[C@H](CC(C)C)NC(=O)[C@H](CC(=O)O)NC(=O)[C@H](CO)NC(=O)[C@@H](NC(=O)[C@H](Cc1ccccc1)NC(=O)[C@@H](NC(=O)CNC(=O)[C@H](CCC(=O)O)NC(=O)C(C)(C)NC(=O)[C@@H](N)Cc1ccc(O)cc1)[C@@H](C)O)[C@@H](C)CC)[C@@H](C)CC)[C@@H](C)CC)C(=O)N[C@@H](CCC(=O)O)C(=O)N[C@@H](Cc1c[nH]c2ccccc12)C(=O)N[C@@H](CC(C)C)C(=O)N[C@@H](CC(C)C)C(=O)N[C@@H](C)C(=O)N[C@@H](CCC(N)=O)C(=O)NCC(=O)N1CCC[C@H]1C(=O)N[C@@H](CO)C(=O)N[C@@H](CO)C(=O)NCC(=O)N[C@@H](C)C(=O)N1CCC[C@H]1C(=O)N1CCC[C@H]1C(=O)N1CCC[C@H]1C(=O)N[C@@H](CO)C(N)=O [SEQ ID NO: 10, H2N-Y-Aib-E-G-T-F-I-S-D-I-S-I-Aib-K[{AEEA}2-gGlu-C20OH]-DRIHQEEFIEWILAQGPSSGAPPPS-NH2] (H-Y[Aib]EGTFISDLSI[Aib]K([AEEA-AEEA-γGlu-C20 diacid])DRIHQEEFIEWLLAQGPSSGAPPPS-NH2) |  | 127% | > 10 nM | 0.3 nM |  |  |

Source: patent publication US20230103631A1, “PEPTIDES AS SELECTIVE GIP RECEPTOR AGONISTS” (Sanofi, priority 2020, published 2023)
